The text below walks through data of patent publication US20220162548A1, “PRODUCING ISOTHIOCYANATES FROM CALLUS SUSPENSION CULTURES” (PERPETUUM CROPSCIENCE BVBA, priority 2019, published 2022).

The test system of the experiment is NON-GMO Impala F1 Cabbage (Brassica oleracea L. var. capitata) callus cultures. Kind of experiment: Elicitation of callus cultures, benzyl isothiocyanate accumulation and callus weight. The class given is cell-based. Particulars: for Concentration of benzyl isothiocyanate / Dry weight / Fresh weight: four weeks of culture. As to the method: 10 g of calli (fresh weight/vessel) was transferred to the same medium composition in addition to different concentrations of chitosan (200, 400 and 600 mg/L) and salicylic acid (10, 20 and 40 mg/L) as biotic elicitors, in addition to the control treatment without elicitors. After calli was collected, the fresh and dry weights were determined. Dry weight was determined after drying the calli at 45° C. in an oven until a constant weight was obtained. Benzyl Isothiocyanate concentration was also recorded with each treatment. After four weeks of culture, data was documented.
To determine Benzyl Isothiocyanate content, high performance liquid chromatography (HPLC) was performed. The extraction of Benzyl Isothiocyanate was carried out from calli and cells from Erlenmeyer flask culture and single-use ReadyToProcess WAVE Cellbag bioreactor experiments. Samples were homogenized using a glass mortar and pestle (MilliporeSigma, Belgium) containing 70:30 (v:v) MeOH:sterilized water. Extracts were then transferred to glass stoppered Erlenmeyer flasks (DWK Life Sciences) and conditioned in a thermostatic bath (Fisherscientific, Belgium) under constant agitation. For 30 minutes the extraction was carried out at 70° C. and then filtered on Invitrolon PVDF membranes (Polyvinylidene Fluoride) ([…], ThermoFisher Scientific, Belgium) prior to HPLC injection.
Methanolic extracts of the samples were analyzed by HPLC for Benzyl Isothiocyanate concentration using an external standard. HPLC system (Ultimate 3000 Automated System, ThermoFisher Scientific, Belgium) was coupled with UV-Vis detector (UltiMate 3000 Multiple Wavelength Detector, ThermoFisher Scientific, Belgium) and vacuum degasser (UltiMate 3000 SRD-3400 HPLC Degasser, ThermoFisher Scientific, Belgium).
Sample injections of 20 μl were made by an autosampler (UltiMate 3000 WPS-3000 Autosampler, ThermoFisher Scientific, Belgium); the chromatographic separations were performed on C18 Reversed Phase LC columns (Accucore C18 LC Columns, ThermoFisher Scientific, Belgium). Column temperature was maintained at 30° C. and detection wavelength was 253 nm. Optimum efficiency of separation was obtained using methanol (solvent A), and acetonitrile (solvent B) (HPLC grade, Sigma Aldrich, Belgium). The flow rate was 1 ml/minute. The running time for each analysis was 60 minutes, and 10 minutes were required for column cleaning and equilibrium.
The Benzyl Isothiocyanate concentration of the injected samples was calculated as μg/g fresh weight of sample.
Experiments were conducted in a completely randomized design with at least 30 replicates per treatment for the calli experiment and 4 replicates for the cell suspension culture experiments. Data were subjected to statistical analysis by Analysis of Variance (Anova) programme using Duncan's multiple range test as modified by Snedecor and Cochran. Values marked with different letters were considered to be statistically different at p<0.04.

On to `O=C(O)c1ccccc1O` [Salicylic acid], for which, for the setting “salicylic acid 10 mg/L”, the “increase in Benzyl Isothiocyanate accumulation over the control treatment” value was 1.7 times, the “Concentration of benzyl isothiocyanate” value was determined as 2.174 μg/g fresh weight, the Dry weight was determined as 4.807 g and the Fresh weight worked out at 5.985 g. Further, where the note is “salicylic acid 20 mg/L”, the “Concentration of benzyl isothiocyanate” value amounted to 2.039 μg/g fresh weight, the Dry weight is reported as 4.424 g and the Fresh weight is given as 4.981 g. Where the note is “salicylic acid 40 mg/L”, the “Concentration of benzyl isothiocyanate” value is recorded as 1.956 μg/g fresh weight, the Dry weight amounted to 5.107 g and the Fresh weight worked out at 5.509 g.
